Experimental data: PubChem BioAssay AID2060605 (Molecular Pharmacology Branch, DTP, NCI, 2025)

System: 947758-054-R-J2-PDC spheroid growth, percent test/control
Test: Anticancer human tumor 947758-054-R-J2-PDC patient-derived colon adenocarcinoma cell line growth inhibition [CLK]
Settings: spheroids with HUVEC and MSC; for IC50: curve of first compound; for viability, T/C: stronger effect = lower value
Procedure, shortened: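 Patient-derived tumor cells grown as complex spheroids with HUVEC endothelial cells and mesenchymal stem cells, treated with drug combinations. Concentrations descend in half-log steps from near clinical Cmax, or from 10 microM if Cmax unknown.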

[1] = second compound 0.0316 µM, first compound 0.0316 µM
[2] = second compound 0.0316 µM, first compound 0.1 µM
[3] = second compound 0.0316 µM, first compound 0.316 µM
[4] = second compound 0.0316 µM, first compound 1 µM
[5] = second compound 0.0316 µM, first compound 3.16 µM
[6] = second compound 0.0316 µM, first compound 10 µM
[7] = second compound 0.1 µM, first compound 0.0316 µM
[8] = second compound 0.1 µM, first compound 0.1 µM
[9] = second compound 0.1 µM, first compound 0.316 µM
[10] = second compound 0.1 µM, first compound 1 µM
[11] = second compound 0.1 µM, first compound 3.16 µM
[12] = second compound 0.1 µM, first compound 10 µM
[13] = second compound 0.316 µM, first compound 0.0316 µM
[14] = second compound 0.316 µM, first compound 0.1 µM
[15] = second compound 0.316 µM, first compound 0.316 µM
[16] = second compound 0.316 µM, first compound 1 µM
[17] = second compound 0.316 µM, first compound 3.16 µM
[18] = second compound 0.316 µM, first compound 10 µM
[19] = second compound 1 µM, first compound 0.0316 µM
[20] = second compound 1 µM, first compound 0.1 µM
[21] = second compound 1 µM, first compound 0.316 µM
[22] = second compound 1 µM, first compound 1 µM
[23] = second compound 1 µM, first compound 3.16 µM
[24] = second compound 1 µM, first compound 10 µM
[25] = second compound 3.16 µM, first compound 0.0316 µM
[26] = second compound 3.16 µM, first compound 0.1 µM
[27] = second compound 3.16 µM, first compound 0.316 µM
[28] = second compound 3.16 µM, first compound 1 µM
[29] = second compound 3.16 µM, first compound 3.16 µM
[30] = second compound 3.16 µM, first compound 10 µM
[31] = second compound 10 µM, first compound 0.0316 µM
[32] = second compound 10 µM, first compound 0.1 µM
[33] = second compound 10 µM, first compound 0.316 µM
[34] = second compound 10 µM, first compound 1 µM
[35] = second compound 10 µM, first compound 3.16 µM
[36] = second compound 10 µM, first compound 10 µM
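Further: spheroids exposed to compounds for one week before readout.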
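Wherever viability, T/C is given: 100% = DMSO vehicle control wells.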

Compound: CC(CO)NC(=O)c1cc(-c2ccc(Cl)cc2)nn(-c2cnn(C)c2)c1=O (stereo unspecified) + CNC(=O)c1ccc(Nc2nc(OC3CCCC3)c3c(-c4ccc5nc(C)oc5c4)c[nH]c3n2)c(OC)c1
- IC50 (second compound 0.0316 µM): > 10000 nM
- IC50 (second compound 0.1 µM): > 10000 nM
- IC50 (second compound 0.316 µM): 9670 nM
- IC50 (second compound 1 µM): > 10000 nM
- IC50 (second compound 3.16 µM): < 31.6 nM
- IC50 (second compound 10 µM): < 31.6 nM
- viability, T/C [1]: 92.2%
- viability, T/C [2]: 66.3%
- viability, T/C [3]: 72.1%
- viability, T/C [4]: 71.8%
- viability, T/C [5]: 65.8%
- viability, T/C [6]: 52.3%
- viability, T/C [7]: 84.3%
- viability, T/C [8]: 93.9%
- viability, T/C [9]: 80%
- viability, T/C [10]: 84.6%
- viability, T/C [11]: 68.6%
- viability, T/C [12]: 52.5%
- viability, T/C [13]: 76.2%
- viability, T/C [14]: 69%
- viability, T/C [15]: 69.8%
- viability, T/C [16]: 87.1%
- viability, T/C [17]: 88.5%
- viability, T/C [18]: 49.1%
- viability, T/C [19]: 67.2%
- viability, T/C [20]: 51.9%
- viability, T/C [21]: 52.7%
- viability, T/C [22]: 65.3%
- viability, T/C [23]: 72.4%
- viability, T/C [24]: 35.9%
- viability, T/C [25]: 46.9%
- viability, T/C [26]: 41%
- viability, T/C [27]: 51.1%
- viability, T/C [28]: 56.6%
- viability, T/C [29]: 55.9%
- viability, T/C [30]: 37.2%
- viability, T/C [31]: 28.5%
- viability, T/C [32]: 44.2%
- viability, T/C [33]: 40.4%
- viability, T/C [34]: 41.6%
- viability, T/C [35]: 30%
- viability, T/C [36]: 25.9%

Compound: CC(Nc1ccc2c(c1)OCCn1cc(N3C(=O)OCC3C(F)F)nc1-2)C(N)=O (stereo unspecified) + CNC(=O)c1ccc(Nc2nc(OC3CCCC3)c3c(-c4ccc5nc(C)oc5c4)c[nH]c3n2)c(OC)c1
- IC50 (second compound 0.0316 µM): 75.4 nM
- IC50 (second compound 0.1 µM): 94.9 nM
- IC50 (second compound 0.316 µM): 59.4 nM
- IC50 (second compound 1 µM): < 31.6 nM
- IC50 (second compound 3.16 µM): < 31.6 nM
- IC50 (second compound 10 µM): < 31.6 nM
- viability, T/C [1]: 55.6%
- viability, T/C [2]: 51.5%
- viability, T/C [3]: 39.4%
- viability, T/C [4]: 35.8%
- viability, T/C [5]: 39%
- viability, T/C [6]: 33.7%
- viability, T/C [7]: 70.7%
- viability, T/C [8]: 46.2%
- viability, T/C [9]: 36.2%
- viability, T/C [10]: 35%
- viability, T/C [11]: 28%
- viability, T/C [12]: 20.8%
- viability, T/C [13]: 64.6%
- viability, T/C [14]: 37.9%
- viability, T/C [15]: 16.9%
- viability, T/C [16]: 22.7%
- viability, T/C [17]: 21.6%
- viability, T/C [18]: 14.4%
- viability, T/C [19]: 34.1%
- viability, T/C [20]: 19.7%
- viability, T/C [21]: 12.5%
- viability, T/C [22]: 10.8%
- viability, T/C [23]: 10.8%
- viability, T/C [24]: 4.05%
- viability, T/C [25]: 31.8%
- viability, T/C [26]: 14.3%
- viability, T/C [27]: 9.12%
- viability, T/C [28]: 8.23%
- viability, T/C [29]: 5.63%
- viability, T/C [30]: 4.88%
- viability, T/C [31]: 20.7%
- viability, T/C [32]: 10.9%
- viability, T/C [33]: 10.3%
- viability, T/C [34]: 6.53%
- viability, T/C [35]: 4.37%
- viability, T/C [36]: 4.21%

Compound: COc1c(OCCCN2CCOCC2)ccc2c3n(c(=NC(=O)c4cnc(N)nc4)nc12)CCN3 + CNC(=O)c1ccc(Nc2nc(OC3CCCC3)c3c(-c4ccc5nc(C)oc5c4)c[nH]c3n2)c(OC)c1
- IC50 (second compound 0.0316 µM): 18.1 nM
- IC50 (second compound 0.1 µM): 14.7 nM
- IC50 (second compound 0.316 µM): 7.81 nM
- IC50 (second compound 1 µM): < 3.16 nM
- IC50 (second compound 3.16 µM): < 3.16 nM
- IC50 (second compound 10 µM): < 3.16 nM
- viability, T/C (second compound 0.0316 µM, first compound 0.00316 µM): 77%
- viability, T/C (second compound 0.0316 µM, first compound 0.01 µM): 53.6%
- viability, T/C [1]: 39.2%
- viability, T/C [2]: 37.2%
- viability, T/C [3]: 25.1%
- viability, T/C [4]: 13.4%
- viability, T/C (second compound 0.1 µM, first compound 0.00316 µM): 69.9%
- viability, T/C (second compound 0.1 µM, first compound 0.01 µM): 60.6%
- viability, T/C [7]: 30.2%
- viability, T/C [8]: 22.2%
- viability, T/C [9]: 14.9%
- viability, T/C [10]: 10.6%
- viability, T/C (second compound 0.316 µM, first compound 0.00316 µM): 71.4%
- viability, T/C (second compound 0.316 µM, first compound 0.01 µM): 44.6%
- viability, T/C [13]: 21.1%
- viability, T/C [14]: 11.8%
- viability, T/C [15]: 8.06%
- viability, T/C [16]: 3.94%
- viability, T/C (second compound 1 µM, first compound 0.00316 µM): 49.8%
- viability, T/C (second compound 1 µM, first compound 0.01 µM): 30.4%
- viability, T/C [19]: 10.1%
- viability, T/C [20]: 4.35%
- viability, T/C [21]: 3.7%
- viability, T/C [22]: 2.28%
- viability, T/C (second compound 3.16 µM, first compound 0.00316 µM): 43.2%
- viability, T/C (second compound 3.16 µM, first compound 0.01 µM): 17.7%
- viability, T/C [25]: 9.11%
- viability, T/C [26]: 3.98%
- viability, T/C [27]: 3.84%
- viability, T/C [28]: 2.88%
- viability, T/C (second compound 10 µM, first compound 0.00316 µM): 25.4%
- viability, T/C (second compound 10 µM, first compound 0.01 µM): 15.1%
- viability, T/C [31]: 8.44%
- viability, T/C [32]: 4.43%
- viability, T/C [33]: 2.95%
- viability, T/C [34]: 2.09%
